The values below come from patent publication US8716289B2, “Carbamate derivatives of alkyl-heterocycles, preparation thereof and therapeutic use thereof” (Sanofi, priority 2008, dated 2014).

Broadly, the melting point is the temperature, or range, at which the solid turns liquid. Regarding `CC(C)c1nc(COC(=O)NCC2CCN(c3nccc(C(F)(F)F)n3)CC2)no1` [Compound 55, 5-isopropyl[1,2,4]oxadiazol-3-ylmethyl [1-(4-trifluoromethylpyrimidin-2-yl)piperidin-4-yl]methylcarbamate], the melting point lay within 104 to 106 °C. To `CCOC(=O)c1cc(COC(=O)NCC2(F)CCN(c3ccc4cc(Cl)ccc4n3)CC2)on1` [Compound 56, ethyl 5-[1-(6-chloroquinolin-2-yl)-4-fluoropiperidin-4-ylmethylcarbamoyloxymethyl]isoxazole-3-carboxylate] belongs 132 to 134 °C. To `CNC(=O)c1cc(COC(=O)NCC2(F)CCN(c3nccc(C(F)(F)F)n3)CC2)on1` [Compound 57, 3-methylcarbamoylisoxazol-5-ylmethyl [4-fluoro-1-(4-trifluoromethylpyrimidin-2-yl)piperidin-4-yl]methylcarbamate] belongs 187 to 189 °C. Under `CC(C)c1nc(COC(=O)NCC2CCN(c3nnc(Cl)c4ccccc34)CC2)no1` [Compound 59, 5-isopropyl[1,2,4]oxadiazol-3-ylmethyl [1-(4-chlorophthalazin-1-yl)piperidin-4-yl]methylcarbamate] stands 139 to 141 °C. For the compound `CNC(=O)c1cc(COC(=O)NCCC2(CC(C)C)CCN(c3ccc([N+](=O)[O-])cc3C(F)(F)F)CC2)on1` [Compound 66, 3-methylcarbamoylisoxazol-5-ylmethyl {2-[4-isobutyl-1-(4-nitro-2-trifluoromethylphenyl)piperidin-4-yl]ethyl}carbamate], the melting point is 145 to 147 °C. Under `CC(C)c1nc(COC(=O)NCC2CCN(c3nccc4ccccc34)CC2)no1` [Compound 67, 5-isopropyl[1,2,4]oxadiazol-3-ylmethyl (1-isoquinolin-1-ylpiperidin-4-ylmethyl)carbamate] stands 95 to 97 °C; under `NC(=O)c1cc(COC(=O)NCCC2CCN(c3cnc(-c4ccc(F)cc4)cn3)CC2)on1` [Compound 68, 3-carbamoylisoxazol-5-ylmethyl (2-{1-[5-(4-fluorophenyl)-pyrazin-2-yl]piperidin-4-yl}ethyl)carbamate], 187 to 189 °C. To `CNC(=O)c1cc(COC(=O)NCCC2CCN(c3cnc(-c4ccc(F)cc4)cn3)CC2)on1` [Compound 69, 3-methylcarbamoylisoxazol-5-ylmethyl (2-{1-[5-(4-fluorophenyl)pyrazin-2-yl]piperidin-4-yl}ethyl)carbamate] belongs 181.5 to 183.5 °C. In turn, `CNC(=O)c1cc(COC(=O)NC2CCN(c3nccc(C(F)(F)F)n3)CC2)on1` [Compound 70, 3-methylcarbamoylisoxazol-5-ylmethyl [1-(4-trifluoromethylpyrimidin-2-yl)piperidin-4-yl]carbamate] yielded a melting point of 197 to 199 °C. Under `CCOC(=O)c1cc(COC(=O)NCCC2CCN(c3ccc4cc(Cl)ccc4n3)CC2)on1` [Compound 71, ethyl 5-{2-[1-(6-chloroquinolin-2-yl)piperidin-4-yl]-ethylcarbamoyloxymethyl}isoxazole-3-carboxylate] stands 117 to 119 °C; under `CNC(=O)c1cc(COC(=O)NCCC2(C)CCN(c3nccc(C(F)(F)F)n3)CC2)on1` [Compound 72, 3-methylcarbamoylisoxazol-5-ylmethyl {2-[4-methyl-1-(4-trifluoromethylpyrimidin-2-yl)piperidin-4-yl]ethyl}carbamate], 160 to 162 °C. `CNC(=O)c1cc(COC(=O)NC2CCN(c3nnc(Cl)c4ccccc34)CC2)on1` [Compound 75, 3-methylcarbamoylisoxazol-5-ylmethyl [1-(4-chlorophthalazin-1-yl)piperidin-4-yl]carbamate]: the melting point was 208 to 210 °C.

`CNC(=O)c1cc(COC(=O)NC2CCN(c3ccc([N+](=O)[O-])cc3C(F)(F)F)CC2)on1` [Compound 76, 3-methylcarbamoylisoxazol-5-ylmethyl [1-(4-nitro-2-trifluoromethylphenyl)piperidin-4-yl]carbamate] displayed a melting point of 156 to 158 °C.

On to `CNC(=O)c1cc(COC(=O)NC2CCN(c3cnc4cc(Cl)ccc4n3)CC2)on1` [Compound 77, 3-methylcarbamoylisoxazol-5-ylmethyl [1-(6-chloroquinoxalin-2-yl)piperidin-4-yl]carbamate], for which the melting point was 232 to 234 °C. In the case of `CNC(=O)c1cc(COC(=O)NCCC2(C)CCN(c3cnc4cc(Cl)ccc4n3)CC2)on1` [Compound 78, 3-methylcarbamoylisoxazol-5-ylmethyl {2-[1-(6-chloroquinoxalin-2-yl)-4-methylpiperidin-4-yl]ethyl}carbamate], the melting point is 167 to 169 °C. To `NC(=O)c1cc(COC(=O)NCCC2CN(c3nccc(C(F)(F)F)n3)C2)on1` [Compound 82, 3-carbamoylisoxazol-5-ylmethyl {2-[1-(4-trifluoromethylpyrimidin-2-yl)azetidin-3-yl]ethyl}carbamate] belongs 163 to 165 °C; to `CNC(=O)c1cc(COC(=O)NCCC2CN(c3nccc(C(F)(F)F)n3)C2)on1` [Compound 83, 3-methylcarbamoylisoxazol-5-ylmethyl {2-[1-(4-trifluoromethylpyrimidin-2-yl)azetidin-3-yl]ethyl}carbamate], 155 to 157 °C.
